Data: patent US9593149B2, “Amylin and calcitonin receptor agonist” (Novo Nordisk A/S, priority 2014, dated 2017)
≈ marks a conversion by molar mass, not a printed value. Numbered stars: 1 amine (or outer) side, 2 acyl side, 3 side chain; on linkers, the order of the positions; unused ones are H or OH. Peptide text beside a SMILES is read from it. * marks the point of attachment. C18 diacid = O=C(O)CCCCCCCCCCCCCCCCC(=O)*; γGlu = O=C(O)[C@H](CCC(=O)[*:2])N[*:1]

What was measured:
[1] = target: T1, human calcitonin receptor, BHK tk'ts 13 cells (Homo sapiens, UniProt P30988); assay: Assay (VIIa) binding to the human calcitonin receptor (whole cell); details: read-out: hCT-R binding IC50
T1 construct: expressed in transfected cells; host or cells: BHK tk'ts 13
T1 sequence (P30988 25-474): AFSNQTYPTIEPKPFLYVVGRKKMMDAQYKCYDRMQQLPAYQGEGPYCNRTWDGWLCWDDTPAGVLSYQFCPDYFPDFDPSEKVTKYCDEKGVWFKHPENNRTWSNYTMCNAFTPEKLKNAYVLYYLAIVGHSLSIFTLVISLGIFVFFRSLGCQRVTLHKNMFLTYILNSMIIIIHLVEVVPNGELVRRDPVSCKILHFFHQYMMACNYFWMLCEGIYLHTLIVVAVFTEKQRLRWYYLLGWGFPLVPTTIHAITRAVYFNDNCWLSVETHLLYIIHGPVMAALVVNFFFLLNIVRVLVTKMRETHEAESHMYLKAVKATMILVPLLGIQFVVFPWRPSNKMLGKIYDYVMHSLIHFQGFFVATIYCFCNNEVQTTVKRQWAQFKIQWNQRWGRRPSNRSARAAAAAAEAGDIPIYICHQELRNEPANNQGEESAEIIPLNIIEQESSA
Experimental: Assay (VIIa)—Determination of Binding to the Human Calcitonin Receptor (Whole Cell Binding)
The binding assay was performed using a BHK tk'ts 13 cell line was stably transfected with the human calcitonin receptor, and a CRE-responsive luciferase reporter gene.
The day before the assay the cells were Seeded into Poly-D-Lysin coated 384W Opaque White, BD BioCoat plates (10000 cells/well) and Incubated overnight at 37° C., 5% CO2, 95% humidity. Then, the cells were washed in HBSS (4° C.), and incubated overnight at 4° C. in a binding buffer containing test compounds, 50 pM [125I]-human calcitonin, media w/o phenol red, 500 ml 0.1% ovalbumin (5 ml 10% ovalbumin) 10 mM Hepes (5 ml 1M) 1× Glutamin (5 ml 100×) 1% P/S (5 ml 100%) Complete (1 tablet/50 ml) 0.1% Pluronic F68®. The morning after, the plates were washed three times in HBSS (4° C.), and lyzed in Lysis buffer (0.1 M NaOH), 1% SDS. Scintillation cocktail (MicroScint40®) was added and the plates were shaken at 500 rpm for a short period. The plate was incubated at room temperature in the dark for 1 hour and Read on a TopCounter™ (Packard). The IC50 was calculated using (one site binding competition analysis) GraphPad Prism5 as a measure of receptor affinity. Assay (VIII)—Determination of Binding to the Rat Calcitonin Receptor

[2] = Assay (IV) determination of solubility; assay type: physicochemical
Experimental: Assay (IV)—Determination of Solubility
The mimylin peptide was dissolved in water at ˜500 nmol/ml and mixed 1:1 with a series of buffers (100 mM glycylglycine pH 3.0, 100 mM glycylglycine pH 4.0, 100 mM glycylglycine pH 5.0, 100 mM bistrispropane pH 6.0, 100 mM bistrispropane pH 6.5, 100 mM bistrispropane pH 7.0, 100 mM bistrispropane pH 7.5, 100 mM bistrispropane pH 8.0).

[3] = target: T2, human amylin receptor (human calcitonin receptor + human RAMP3), BHK tk'ts 13 cells (Homo sapiens, UniProt O60896+P30988); assay: Assay (Va) binding to the human amylin receptor (whole cell); details: read-out: hAmylin-R binding IC50
T2 construct: expressed in transfected cells; host or cells: BHK tk'ts 13
T2 sequence (O60896 24-148, one chain of several): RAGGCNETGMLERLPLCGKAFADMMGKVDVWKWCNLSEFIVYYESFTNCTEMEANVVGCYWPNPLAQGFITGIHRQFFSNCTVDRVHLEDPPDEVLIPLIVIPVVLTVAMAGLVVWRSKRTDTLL
Experimental: The day before the assay the cells were Seeded into Poly-D-Lysin coated 384W Opaque White, BD BioCoat plates (10000 cells/well) and Incubated overnight at 37° C., 5% CO2, 95% humidity.

[4] = target: T3, human amylin 3(a) receptor (human calcitonin receptor + RAMP-3), BHK570 cells (Homo sapiens, UniProt O60896+P30988); assay: Assay (II)b functional CRE-luciferase assay without albumin, human amylin receptor; assay type: cell-based; details: Tested without HSA; read-out: hAmylin-R funct. EC50
T3 construct: host or cells: BHK570
T3 sequence (O60896 24-148, one chain of several): as above
Procedure, shortened: (§1)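 BHK570 cells stably expressing human calcitonin receptor with CRE-luciferase reporter, plus RAMP-3 for the amylin 3(a) line. Cells stimulated 3 hours at 37 °C in albumin-free assay medium (0.1% ovalbumin, 10 mM Hepes pH 7.4); cAMP-driven luciferase read by luminescence.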

[5] = target: T4, human calcitonin (a) receptor, BHK570 cells (Homo sapiens, UniProt P30988); assay: Assay (II)b functional CRE-luciferase assay without albumin, human calcitonin receptor; assay type: cell-based; details: Tested without HSA; read-out: hCTR funct. EC50
T4 construct: host or cells: BHK570
T4 sequence (P30988 25-474): T1 sequence (P30988 25-474)
Procedure, shortened: as §1

[6] = target: T3, human amylin 3(a) receptor (human calcitonin receptor + RAMP-3), BHK570 cells; assay: Assay (II)a functional CRE-luciferase assay with albumin, human amylin receptor; assay type: cell-based; details: Tested with HSA; read-out: hAmylin-R funct. EC50
Procedure, shortened: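 BHK570 cells stably carry a CRE-luciferase reporter and the calcitonin receptor; co-transfected RAMP-3 gives the amylin 3(a) receptor line. Cells were treated for 3 h at 37 °C in DMEM with 10% FBS and 10 mM Hepes, pH 7.4. cAMP-driven luciferase was read by LucLite luminescence after 30 min at RT.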

| IC50 [1] [nM] | solubility at 18 h ([2]; bistrispropane buffer, pH 6.5) [µM] | solubility at 18 h ([2]; bistrispropane buffer, pH 7.5) [µM] | solubility at 18 h ([2]; bistrispropane buffer, pH 6.0) [µM] | solubility at 18 h ([2]; bistrispropane buffer, pH 7.0) [µM] | solubility at 18 h ([2]; bistrispropane buffer, pH 8.0) [µM] | solubility at 18 h ([2]; glycylglycine buffer, pH 3.0) [µM] | solubility at 18 h ([2]; glycylglycine buffer, pH 4.0) [µM] | solubility at 18 h ([2]; glycylglycine buffer, pH 5.0) [µM] | IC50 [3] [nM] | EC50 [4] [nM] | EC50 [5] [nM] | EC50 [6] [nM] | SMILES |
| --- | --- | --- | --- | --- | --- | --- | --- | --- | --- | --- | --- | --- | --- |
| 0.413 | ≥ 200 | ≥ 200 | ≥ 200 | ≥ 200 | ≥ 200 | ≥ 200 | 218 (≈ 822 µg/mL) | ≥ 200 | 0.4 | 0.01 | 0.007 | – | CC[C@H](C)[C@H](NC(=O)[C@H](C)NC(=O)[C@@H](NC(=O)[C@H](CO)NC(=O)[C@@H](NC(=O)[C@H](CCC(=O)O)NC(=O)[C@H](CO)NC(=O)[C@H](C)NC(=O)[C@H](CCC(=O)O)NC(=O)CCCCCCCCCCCCCCCCC(=O)O)[C@@H](C)CC)[C@@H](C)O)C(=O)N[C@@H](CC(C)C)C(=O)NCC(=O)N[C@@H](CCCNC(=N)N)C(=O)N[C@@H](CC(C)C)C(=O)N[C@@H](CO)C(=O)N[C@@H](C)C(=O)N[C@@H](CCC(=O)O)C(=O)N[C@@H](CC(C)C)C(=O)N[C@@H](Cc1c[nH]cn1)C(=O)N[C@@H](CCC(=O)O)C(=O)N[C@@H](CC(C)C)C(=O)N[C@@H](C)C(=O)N[C@H](C(=O)N[C@@H](CC(C)C)C(=O)N1CCC[C@H]1C(=O)N[C@@H](CCCNC(=N)N)C(=O)N[C@H](C(=O)N[C@@H](CCC(=O)O)C(=O)N[C@H](C(=O)NCC(=O)N1CCC[C@H]1C(=O)N[C@@H](CCC(=O)O)C(=O)N[C@@H](CO)C(=O)N1CCC[C@H]1C(N)=O)[C@@H](C)O)[C@@H](C)O)[C@@H](C)O [compound 25, [N-terminal(C18 diacid), 5I, 9I]mimylin] |
| 0.651 | ≥ 200 | ≥ 200 | ≥ 200 | ≥ 200 | ≥ 200 | ≥ 200 | ≥ 200 | ≥ 200 | 0.652 | 0.042 | 0.03 | 0.03 | CC(C)C[C@H](NC(=O)[C@H](CCC(=O)O)NC(=O)[C@H](Cc1c[nH]cn1)NC(=O)[C@H](CC(C)C)NC(=O)[C@H](CCC(=O)O)NC(=O)[C@H](C)NC(=O)[C@H](CO)NC(=O)[C@H](CC(C)C)NC(=O)[C@H](CCCNC(=N)N)NC(=O)CNC(=O)[C@H](CC(C)C)NC(=O)[C@@H](NC(=O)[C@H](C)NC(=O)[C@@H](NC(=O)[C@@H](NC(=O)[C@H](CC(C)C)NC(=O)[C@H](CCC(=O)O)NC(=O)[C@H](CO)NC(=O)[C@H](C)NC(=O)CC[C@H](NC(=O)CCCCCCCCCCCCCCCCC(=O)O)C(=O)O)[C@@H](C)O)[C@@H](C)O)C(C)C)C(=O)N[C@@H](C)C(=O)N[C@H](C(=O)N[C@@H](CC(C)C)C(=O)N1CCC[C@H]1C(=O)N[C@@H](CCCNC(=N)N)C(=O)N[C@H](C(=O)N[C@@H](CCC(=O)O)C(=O)N[C@H](C(=O)NCC(=O)N[C@@H](CO)C(=O)NCC(=O)N[C@H](C(=O)N1CCC[C@H]1C(N)=O)[C@@H](C)O)[C@@H](C)O)[C@@H](C)O)[C@@H](C)O [compound 94, [N-terminal(C18 diacid-gGlu), des1, 6T, 9V, 30S, 31G, 32T]mimylin] ({C18 diacid-γGlu}-ASELTTAVLGRLSAELHELATLPRTETGSGTP-NH2) |
